Earlier results, collected in patent US8227637B2, “Stable, water-soluble near infrared dyes” (Epolin, Inc., priority 2008, dated 2012).

Conditions: SbF6 salt of U.S. Pat. No. 3,709,830, statement in background

OCCN(CCO)c1ccc([N+](=C2C=CC(=[N+](c3ccc(N(CCO)CCO)cc3)c3ccc(N(CCO)CCO)cc3)C=C2)c2ccc(N(CCO)CCO)cc2)cc1.[F][Sb-]([F])([F])([F])([F])[F].[F][Sb-]([F])([F])([F])([F])[F] [N,N′,N″,N′″-tetrakis(4-[di(2-hydroxyethyl)amino]-phenyl)-p-benzoquinonebis(imoniumhexafluoro-antimonate)]
water solubility: not water-soluble
